Test results as given in ChEMBL document CHEMBL4483862, “Open-source discovery of chemical leads for next-generation chemoprotective antimalarials” (2018).

Tested on: Plasmodium berghei
Experiment: Luciferase/luciferin-expressing antifolate-resistant parasites were used to infect a culture of HepG2 cells that were pre-incubated with compounds. Infected hepatocytes emit light due to the luciferase reaction. Assay results are presented as the percent inhibition of light emission compared to control. […]
Type: functional
Conditions: sporozoite; for IC90: read-out: LUCIFERASE INFECTION ASSAY - IC90
[1] = read-out: LUCIFERASE INFECTION ASSAY - IC50

SMILES: Cn1c(-c2cccc(F)c2)nc2cnc(-c3cccc(Cl)c3)cc21
- IC50 (HEPG2TOX_HILL_SLOPE 19.5, HEPG2TOX_R_SQUARED 0.312, read-out: LUCIFERASE INFECTION ASSAY - IC50): > 10 µM
- IC90: > 10 µM

SMILES: O=C(Nc1ccc2c(c1)OCO2)C1CCN(c2ccnc3cc(Cl)ccc23)CC1
- IC50 (HEPG2TOX_HILL_SLOPE 0.967, HEPG2TOX_R_SQUARED 0.942, PBLUC_HILL_SLOPE 2.72, PBLUC_R_SQUARED 0.6, read-out: LUCIFERASE INFECTION ASSAY - IC50): 3.61 µM
- IC90: 8.1 µM

SMILES: Cc1ccc(N2C(=O)C=CC2=O)cc1N1C(=O)C=CC1=O
- IC50 [1]: 7.78 µM
- IC90: > 11.7 µM

SMILES: Clc1cc(Cl)cc(-c2nnc(Sc3nc(-c4cccs4)ns3)[nH]2)c1
- IC50 [1]: > 8 µM
- IC90: > 8 µM

SMILES: O=C(CCC1CCCC1)N1CCC(c2nnc3n2CCC3)CC1
- IC50 (HEPG2TOX_HILL_SLOPE 0.129, HEPG2TOX_R_SQUARED 0.379, read-out: LUCIFERASE INFECTION ASSAY - IC50): > 10 µM
- IC90: > 10 µM

SMILES: Cc1cc(C(=O)CNC(=O)Nc2ccccc2)c(C)n1-c1ccc(F)c(Cl)c1
- IC50 (HEPG2TOX_HILL_SLOPE 8.63, HEPG2TOX_R_SQUARED 0.403, PBLUC_HILL_SLOPE 1.87, PBLUC_R_SQUARED 0.488, read-out: LUCIFERASE INFECTION ASSAY - IC50): 2.96 µM
- IC90: 9.57 µM

SMILES: CC1(C)CC2CC(C)(CN2C(=O)CN2CCN(c3cccc(C(F)(F)F)c3)CC2)C1 (stereo unspecified)
- IC50 (PBLUC_HILL_SLOPE 7.96, PBLUC_R_SQUARED 0.534, read-out: LUCIFERASE INFECTION ASSAY - IC50): 9.19 µM
- IC90: > 10 µM

SMILES: Cc1nnsc1-c1onc(C)c1C(=O)NC(=O)Nc1ccccc1
- IC50 [1]: 4.69 µM
- IC90: > 9.61 µM

SMILES: Clc1ccc(CSC2=NNC(c3ccccn3)S2)cc1 (stereo unspecified)
- IC50 (HEPG2TOX_HILL_SLOPE 8.57, HEPG2TOX_R_SQUARED 0.799, PBLUC_HILL_SLOPE 12, PBLUC_R_SQUARED 0.743, read-out: LUCIFERASE INFECTION ASSAY - IC50): 7.86 µM
- IC90: 9.43 µM

SMILES: CSC1=C(C#N)C(=O)NC(c2ccc(Cl)cc2Cl)S1 (stereo unspecified)
- IC50 [1]: > 9.96 µM
- IC90: > 9.96 µM

SMILES: N#CN=c1nc(/C=C/c2ccccc2Cl)[nH]c(-c2ccccc2O)n1
- IC50 (PBLUC_HILL_SLOPE 1.8, PBLUC_R_SQUARED 0.74, read-out: LUCIFERASE INFECTION ASSAY - IC50): 1.26 µM
- IC90: 4.29 µM

SMILES: CC1(C(=O)N2CCN(c3ccc(C(F)(F)F)cn3)CC2)Cc2ccccc2C(=O)O1 (stereo unspecified)
- IC50 (HEPG2TOX_HILL_SLOPE 9.02, HEPG2TOX_R_SQUARED 0.896, PBLUC_HILL_SLOPE 11.4, 1.60, PBLUC_R_SQUARED 0.0115, 0.213, read-out: LUCIFERASE INFECTION ASSAY - IC50): 7.88 µM
- IC90: > 10 µM

SMILES: COc1ccc(-c2cc3ncnc(NCc4ccc(S(=O)(=O)N5CCCC5)s4)c3s2)cc1
- IC50 [1]: 3.52 µM
- IC90: 4.46 µM

SMILES: Nc1ncc(-c2ccc(-c3ccccc3)cc2F)cc1-c1cncc2ccccc12
- IC50 (PBLUC_HILL_SLOPE 1.93, PBLUC_R_SQUARED 0.0355, read-out: LUCIFERASE INFECTION ASSAY - IC50): > 8.43 µM
- IC90: > 8.43 µM

SMILES: CCC(CNC(=O)NCC(=O)Nc1cc(Cl)ccc1Cl)c1ccccc1 (stereo unspecified)
- IC50 (FFLUC_HILL_SLOPE 6.98, FFLUC_R_SQUARED 0.07, read-out: LUCIFERASE INFECTION ASSAY - IC50): > 10 µM
- IC90: > 10 µM

SMILES: COc1cccc(Nc2nccc3nc(-c4cccc(C)c4)[nH]c23)c1
- IC50 (PBLUC_HILL_SLOPE 2.7, PBLUC_R_SQUARED 0.647, read-out: LUCIFERASE INFECTION ASSAY - IC50): 6.02 µM
- IC90: > 10 µM

SMILES: O=C1CN(C(=O)Cc2ccc3c(c2)CCO3)c2ccccc2N1
- IC50 [1]: > 10 µM
- IC90: > 10 µM

SMILES: CC1CCCCC1NC(=O)/C(C#N)=C/C=C/c1ccccc1[N+](=O)[O-] (stereo unspecified)
- IC50 (HEPG2TOX_HILL_SLOPE 14.8, 8.85, HEPG2TOX_R_SQUARED 0.251, 0.979, PBLUC_HILL_SLOPE 2.96, PBLUC_R_SQUARED 0.503, read-out: LUCIFERASE INFECTION ASSAY - IC50): 8.55 µM
- IC90: > 10 µM

SMILES: CCn1c(C)nc2cc(C(=O)NNC(=O)c3cc(=O)[nH]c4ccccc34)ccc21
- IC50 [1]: > 10 µM
- IC90: > 10 µM

SMILES: O=C(/C(=N/Nc1ccc(Cl)cc1Cl)C(=O)C(F)(F)F)c1cccs1
- IC50 (FFLUC_HILL_SLOPE 16.5, FFLUC_R_SQUARED 0.242, PBLUC_HILL_SLOPE 1.77, PBLUC_R_SQUARED 0.602, read-out: LUCIFERASE INFECTION ASSAY - IC50): 1.7 µM
- IC90: 5.87 µM

SMILES: N#CCSC1=CC(=O)CC(c2ccccc2)S1 (stereo unspecified)
- IC50 [1]: > 12.6 µM
- IC90: > 12.6 µM

SMILES: Oc1c(C(c2ccc(F)cc2)N2CCCCC2)cc(Cl)c2cccnc12 (stereo unspecified)
- IC50 (PBLUC_HILL_SLOPE 3.21, PBLUC_R_SQUARED 0.483, read-out: LUCIFERASE INFECTION ASSAY - IC50): 6.21 µM
- IC90: > 10 µM

SMILES: CCOC(=O)c1sc(NC(=O)c2ccc(C)s2)cc1C
- IC50 [1]: > 10 µM
- IC90: > 10 µM

SMILES: O=C(/C=C/c1cc([N+](=O)[O-])ccc1Cl)c1ccc(N2CCOCC2)c(F)c1
- IC50 (HEPG2TOX_HILL_SLOPE 3.72, HEPG2TOX_R_SQUARED 0.763, PBLUC_HILL_SLOPE 12.8, PBLUC_R_SQUARED 0.291, read-out: LUCIFERASE INFECTION ASSAY - IC50): 8.87 µM
- IC90: > 10 µM

SMILES: CCc1nnc(NC(=O)C2CCCN2S(=O)(=O)c2ccc(OC)cc2)s1 (stereo unspecified)
- IC50 [1]: 4.85 µM
- IC90: > 8.32 µM

SMILES: Nc1c(-c2ccccc2)[nH]c2ccccc12
- IC50 [1]: > 15.8 µM
- IC90: > 15.8 µM

SMILES: CC(C)c1ccc(C(=O)N2CCC(CCCC3CCN(C(=O)c4ccc(C(C)C)cc4)CC3)CC2)cc1
- IC50 (HEPG2TOX_HILL_SLOPE 8.83, HEPG2TOX_R_SQUARED 0.537, read-out: LUCIFERASE INFECTION ASSAY - IC50): > 10 µM
- IC90: > 10 µM

SMILES: O=C1Cn2c(c(-c3nc4ccccc4[nH]3)c(=O)c3ccccc32)N1
- IC50 (HEPG2TOX_HILL_SLOPE 13.7, HEPG2TOX_R_SQUARED 0.894, PBLUC_HILL_SLOPE 11.3, PBLUC_R_SQUARED 0.46, read-out: LUCIFERASE INFECTION ASSAY - IC50): 7.72 µM
- IC90: 9.39 µM

SMILES: CCC(C)NC(=O)c1c(NC(=O)c2ccc(F)cc2)nc2ccc(C)cn12 (stereo unspecified)
- IC50 (HEPG2TOX_HILL_SLOPE 5.39, HEPG2TOX_R_SQUARED 0.713, PBLUC_HILL_SLOPE 10.6, PBLUC_R_SQUARED 0.548, read-out: LUCIFERASE INFECTION ASSAY - IC50): 2.84 µM
- IC90: 3.49 µM

SMILES: FC(F)(F)Oc1ccc(Nc2cc3[nH]c(-c4ccccn4)cc3cn2)cc1
- IC50 (HEPG2TOX_HILL_SLOPE 10.1, HEPG2TOX_R_SQUARED 0.985, PBLUC_HILL_SLOPE 7.97, PBLUC_R_SQUARED 0.35, read-out: LUCIFERASE INFECTION ASSAY - IC50): 3.82 µM
- IC90: 5.04 µM

SMILES: Cc1cc(C(=O)N(C(=O)NC2CCCCC2)C2CCCCC2)c(C)n1-c1ccccc1
- IC50 [1]: 1.12 µM
- IC90: 8.67 µM

SMILES: c1ccc(-c2cn3c(-c4ccc5ncccc5c4)cnc3cn2)cc1
- IC50 (HEPG2TOX_HILL_SLOPE 1.31, HEPG2TOX_R_SQUARED 0.967, PBLUC_HILL_SLOPE 1.9, PBLUC_R_SQUARED 0.856, read-out: LUCIFERASE INFECTION ASSAY - IC50): 0.759 µM
- IC90: 2.41 µM

SMILES: CCCNC(=O)C1CN(C(=O)c2oc3ccccc3c2COc2ccccc2)c2ccccc2O1 (stereo unspecified)
- IC50 (PBLUC_HILL_SLOPE 3.71, PBLUC_R_SQUARED 0.44, read-out: LUCIFERASE INFECTION ASSAY - IC50): 6.61 µM
- IC90: > 10 µM

SMILES: COc1cccc(/C=N/NC(=O)C2CCCN(C(=S)NNC3CC4C=CC3C4)CC2)c1O (stereo unspecified)
- IC50 (PBLUC_HILL_SLOPE 0.853, PBLUC_R_SQUARED 0.602, read-out: LUCIFERASE INFECTION ASSAY - IC50): 1.47 µM
- IC90: > 7.21 µM

SMILES: CNc1nn(C(=O)Nc2cccc(C(F)(F)F)c2)cc1[N+](=O)[O-]
- IC50 (PBLUC_HILL_SLOPE 3.4, PBLUC_R_SQUARED 0.508, read-out: LUCIFERASE INFECTION ASSAY - IC50): 5.63 µM
- IC90: > 10 µM

SMILES: Cc1ccc(-c2cc(C(=O)Nc3nnc(C(C)C)s3)[nH]n2)c(O)c1C
- IC50 [1]: > 9.23 µM
- IC90: > 9.23 µM

SMILES: CN(C)Cc1ccc(CNC(=O)Cc2ccc(-c3ccccc3)cc2)cc1
- IC50 (HEPG2TOX_HILL_SLOPE 3.86, HEPG2TOX_R_SQUARED 0.943, PBLUC_HILL_SLOPE 3.55, PBLUC_R_SQUARED 0.451, read-out: LUCIFERASE INFECTION ASSAY - IC50): 4.18 µM
- IC90: 7.76 µM

SMILES: CC(C)(C)CC(=O)Nc1ccc2nc(-c3cccs3)nn2c1
- IC50 (PBLUC_HILL_SLOPE 0.64, PBLUC_R_SQUARED 0.361, read-out: LUCIFERASE INFECTION ASSAY - IC50): 2.36 µM
- IC90: > 10 µM

SMILES: CCCn1c(=O)n(C)c(=O)c2c(SCc3cc(=O)oc4cc(CC)ccc34)nc(C(C)(C)C)nc21
- IC50 [1]: > 10 µM
- IC90: > 10 µM

SMILES: O=C(Cn1ncc(Cl)c(Cl)c1=O)Nc1cc(S(=O)(=O)N2CCOCC2)ccc1Cl
- IC50 (HEPG2TOX_HILL_SLOPE 12.1, HEPG2TOX_R_SQUARED 0.84, PBLUC_HILL_SLOPE 14, PBLUC_R_SQUARED 0.266, read-out: LUCIFERASE INFECTION ASSAY - IC50): 3.2 µM
- IC90: 3.74 µM

SMILES: CCc1ccc(-c2nc(C(=O)Nn3cn[nH]c3=S)cs2)cc1
- IC50 (PBLUC_HILL_SLOPE 3.31, PBLUC_R_SQUARED 0.251, read-out: LUCIFERASE INFECTION ASSAY - IC50): 5.44 µM
- IC90: > 10 µM

SMILES: O=c1c(Cl)c(Cl)cnn1-c1c(Cl)cc(C(F)(F)F)cc1Cl
- IC50 (FFLUC_HILL_SLOPE 19, FFLUC_R_SQUARED 0.471, HEPG2TOX_HILL_SLOPE 2.99, HEPG2TOX_R_SQUARED 0.99, PBLUC_HILL_SLOPE 1.54, PBLUC_R_SQUARED 0.797, read-out: LUCIFERASE INFECTION ASSAY - IC50): 0.388 µM
- IC90: 1.61 µM

SMILES: Nc1ncc(-c2ccc(C(=O)NC3CC3)cc2)cc1-c1ccc(F)c(Cl)c1
- IC50 (PBLUC_HILL_SLOPE 15.4, PBLUC_R_SQUARED 0.346, read-out: LUCIFERASE INFECTION ASSAY - IC50): 7.27 µM
- IC90: 8.39 µM
